From PubChem BioAssay AID1626 (SRMLSC, 2009)
pIC50: −log10 of the molar value.

Tested on: M. tuberculosis H37Rv growth inhibition
Test: M. tuberculosis H37Rv growth inhibitors, H37Rv strain (AID 1626)
Conditions: for IC90: measured here: IC90 against H37Rv; for CC50: measured here: Vero cell cytotoxicity

| Structure (SMILES) | pIC50 | IC90 [µM] | CC50 [µM] |
| --- | --- | --- | --- |
| Cc1ccsc1C(=O)Nc1nc2ccccc2[nH]1 | 4.69 | > 100 | 25.3 |
| CCOc1ccc(NC2=C(OC)C(=O)c3ccccc3C2=O)cc1 | 4.55 | 44.1 | > 40 |
| Cc1ccc(-n2cc(CN(C)Cc3ncc[nH]3)c(-c3cccc(C)c3)n2)cc1 | 4.99 | 13.5 | > 40 |
| CCOC(=O)c1ccc(NC(=O)c2cc3c(s2)CCC3)cc1 | 5.32 | > 100 |  |
| CC(=O)c1ccc(NC(=O)c2ccc(CNc3c(N4CCOCC4)c(=O)c3=O)cc2)cc1 | 5.24 | 6.61 |  |
| O=C(Nc1nc(-c2ccccn2)cs1)c1cc2ccccc2o1 | 5.58 | 42.6 | > 40 |
| COc1cc2c(cc1NCc1ccccn1)oc1ccccc12 | 5.51 | 21.4 |  |
| COc1cc2c(cc1NC(=O)CSc1nc3ccccc3[nH]1)oc1ccccc12 | 4.98 | > 100 | > 40 |
| Cc1ccccc1OCC(=O)Nc1nc2ccccc2[nH]1 | 5.32 | 16.2 |  |
| COc1cccc2c1nc(C)c1cc(C)oc12 | 5.25 | > 100 | > 40 |
| COc1ccc(OCCn2c(NC(=O)c3ccco3)nc3ccccc32)cc1 |  | > 100 | 33.2 |
| N=C1/C(=C/c2ccc(OC(=O)c3ccco3)cc2)C(=O)N=C2SC=CN12 |  | > 100 |  |
| O=C1CCNc2ccc(-c3ccccc3)cc21 |  | > 100 |  |
| c1ccc(CN2CCN(c3nc(-c4ccccc4)nc(-n4ccnc4)n3)CC2)cc1 | 5.82 | 2.2 | > 40 |
| COc1ccc(-c2nnc(SC(C(=O)c3c[nH]c4ccccc34)c3ccccc3)n2N)cc1OC (stereo not given) |  | > 100 | > 40 |
| O=c1[nH][nH]c(-c2ccccc2O)c1C(C[N+](=O)[O-])c1ccc(Br)cc1 (stereo not given) | 4.95 | 24.5 | 18.2 |
| COc1ccc(/C=c2\s/c(=C/C(=O)c3ccc(C)cc3)[nH]c2=O)cc1OC | 4.49 | > 100 |  |
| COc1ccc(N/C=C/C(=O)c2ccc(Cl)cc2)cc1 |  |  | > 40 |
| CCCOc1ccc(NCC(=O)Nc2ccc(C)cc2C)cc1 | > 6.41 | > 100 |  |
| COc1ccc(NCC(=O)Nc2ccccc2C#N)cc1Cl | 4.01 | > 100 |  |
| COc1ccc(-c2nnc(NC(=O)c3cc(Cl)ccc3Cl)o2)cc1 | 5.92 | > 100 | 38.8 |

| Structure (SMILES) | pIC50 | IC90 [µM] | CC50 [µM] |
| --- | --- | --- | --- |
| Cc1ccc(CNCc2cc3c(C(C)(C)C)nn(-c4ccccc4)c3[nH]c2=O)cc1 | 5.08 | 11 | > 40 |
| O=C(/C=C/c1ccc(Cl)cc1Cl)N1CCN(c2ccc([N+](=O)[O-])c(N3CCOCC3)c2)CC1 |  |  | > 40 |
| Cc1cc(NC(=O)CSc2nnc(-c3ccc4c(c3)OCCO4)o2)no1 | 5.83 | 2.53 | > 40 |
| COc1ccccc1NC(CC(=O)c1ccccc1)C(=O)OCC(=O)c1ccc(Br)cc1 (stereo not given) | 4.86 | 21.1 |  |
| O=C(CCC(=O)Nc1ccc(Oc2ccccc2)cc1)NCCO |  | > 100 |  |
| Cc1ccc(C(C)C)c(OCc2nn(CC(=O)c3ccc(OC(F)F)cc3)c3[n+]2CCCCC3)c1 | 5.97 | 1.46 | > 40 |
| COc1cccc(-c2csc(N3CCN(C(=O)NC45CC6CC(CC(C6)C4)C5)CC3)n2)c1 | 5.96 | 1.92 | > 40 |
| Cc1ccc(C(=O)Nc2nc(C)c(C(=O)Nc3ccc4c(c3)CCC4)s2)cc1 | 5.57 | 5.77 | 7.56 |
| Cc1cc(N2CCC(C)CC2)nc(-n2nc(C)cc2C)n1 | 5.50 | > 100 | 16.5 |
| Cn1cnc(Sc2ncnc3nc[nH]c23)c1[N+](=O)[O-] | 5.05 | 16.1 |  |
| Cc1ccc(S(=O)(=O)NC(=O)Nc2nc(-c3ccc(F)c(F)c3)cs2)cc1 | 5.21 | > 100 |  |
| O=C(c1nnsc1S(=O)(=O)c1ccc(Cl)cc1)N1CCOCC1 | 5.10 | 11.6 | 11.3 |
| O=C(Nc1nnc(C2CC2)s1)c1ccccn1 | 5.56 | 3.68 | 15.6 |
| CCOc1ccc(N=Cc2c(O)n(C(C)(C)C)c(=O)[nH]c2=O)cc1 | > 6.71 | > 100 |  |
| O=C1C=C(Nc2ccccc2)C(=O)c2ccccc21 | 4.93 | 13.4 | > 40 |
| COc1ccc2nc(C)cc(SCC(=O)OC(C)C)c2c1 | 5.03 | 13.8 |  |
| O=c1c(C=Nc2ccc(Oc3ccccc3)cc2)c[nH]n1-c1cccc(Cl)n1 |  | > 100 | > 40 |
| CC(C)(C)C(=O)COC(=O)c1cc2ccccc2cc1O | 5.56 | 16.5 |  |
| COc1cc(CNC23CC4CC(CC(C4)C2)C3)ccc1OCc1ccccc1 | 5.53 | 3.35 | > 40 |
| Cc1ccc(-c2ccc(SCC(=O)Nc3nonc3C)nn2)cc1 | 5.75 | 3.88 |  |
| COc1ccc(COCC(O)CN2CCC(CN3C(=O)c4cccc5cccc(c45)C3=O)CC2)cc1OC (stereo not given) | 4.89 | > 100 | > 40 |

| Structure (SMILES) | pIC50 | IC90 [µM] | CC50 [µM] |
| --- | --- | --- | --- |
| CCOC(=O)Cn1c(-c2ccccc2)ccc(C#N)c1=O | 5.40 | > 100 |  |
| CCOC(=O)c1ccc(NC(=O)CN2C(=O)C(=O)N(CC(C)C)C2=O)cc1 | > 6.71 | > 100 |  |
| Cc1[nH]c2ccccc2c1C(=O)COC(=O)c1ccc([N+](=O)[O-])s1 |  |  | 31.8 |
| O=C(C[n+]1cc(-c2ccc(F)cc2)n2c1CCC2)N1c2ccccc2Sc2ccccc21 | 4.41 | > 100 |  |
| Oc1cccc2ccc(/C=C/c3cccs3)nc12 | 5.83 | 4.51 | > 40 |
| Nc1cccc(-c2cc3ccccc3oc2=O)c1 | 4.53 | > 100 |  |
| O=C(Nc1nnc(-c2ccc(F)cc2)o1)c1cc(Cl)sc1Cl | > 6.71 | 2.86 | 18.2 |
| Cc1cc([N+](=O)[O-])ccc1NC(=O)CN1C2CCC1CC(NC(=O)NC13CC4CC(CC(C4)C1)C3)C2 (stereo not given) | 5.52 | 5.59 | > 40 |
| O=C1c2cccc3cc([N+](=O)[O-])cc(c23)C(=O)N1CCN1CCCC1 | 5.34 | 5.71 | 1.8 |
| CSc1nc(-c2ccccc2)nc(C(Cl)Cl)n1 | 5.86 | 2.04 | 6.42 |
| CCc1nnc(NC(=O)c2cc3ccccc3oc2=O)s1 | > 6.71 | 4.5 |  |
| COc1ccc(-c2nsc(SCC(=O)NCC3CCCO3)n2)cc1 (stereo not given) | 5.65 | 5.2 |  |
| CN1CCN(c2ccc(C(=O)c3cn(-c4ccc(F)c(Cl)c4)nn3)cc2)CC1 | 5.46 | > 100 | 9.78 |
| O=C(CSc1nc2ccccc2o1)Nc1nc(-c2ccccc2)cs1 | 4.55 | > 100 |  |
| COc1ccc(C(=O)Oc2cccc3cccnc23)cc1[N+](=O)[O-] | 5.38 | 4.93 | 39 |
| O=C(CSc1nc(-c2ccccc2Cl)ns1)Nc1ccc2c(c1)OCO2 |  |  | > 40 |
| COC(=O)CSc1nc(N)c(C#N)c(CC(C)C)c1C#N | 5.54 | 57.5 |  |
| O=C(NCc1ccco1)c1cc([N+](=O)[O-])cc([N+](=O)[O-])c1 | 5.84 | 1.65 |  |
| CN1CCN(C2=Cc3ccc(Cl)cc3Sc3ccc(F)cc32)CC1 | 4.96 | 12.3 | 33.9 |
| CCCCNC(=O)COC(=O)c1cc(F)c(F)cc1Cl | 5.21 | > 100 |  |
| O=C(c1ccccc1)c1c2c(cc3sc4ccccc4[n+]13)-c1cccc3cccc-2c13 | 5.55 | 5.22 | 23.1 |

| Structure (SMILES) | pIC50 | IC90 [µM] | CC50 [µM] |
| --- | --- | --- | --- |
| Fc1cccc(-c2cc3nc(-c4ccccc4)cc(N4CCC5(CC4)OCCO5)n3n2)c1 |  | > 100 |  |
| CCOC(=O)CSc1nnc(-c2ccccc2NC(=O)c2ccccc2)o1 | 5.56 | > 100 |  |
| O=C(Oc1ccccc1Cl)c1ccc(N2CCOCC2)c([N+](=O)[O-])c1 | 5.39 | 11.1 |  |
| Cc1cc(C)n(-c2nc(Nc3ccccc3C)nc(-n3nc(C)cc3C)n2)n1 | 4.05 | > 100 |  |
| Cc1oc2ccc(OC(=O)c3cccs3)cc2c1C(=O)OC(C)C | 5.55 | 21.3 |  |
| COc1cccc(OCCNC(=O)c2cc([N+](=O)[O-])cc([N+](=O)[O-])c2)c1 | > 6.71 | 0.747 |  |
| Cn1nnnc1SCC(=O)Nc1nc(-c2ccccc2)c(-c2ccccc2)o1 | 4.45 | > 100 | > 40 |
| O=C(Nc1ccc(-c2csc(Nc3cccc(C(F)(F)F)c3)n2)cc1)c1cccc(C(F)(F)F)c1 | 6.02 | 1.53 | 17.6 |
| O=C(Nc1nnc(-c2ccc3c(c2)OCCO3)o1)C1CCCCC1 |  | > 100 |  |
| CCCCNC(=O)COC(=O)c1cc(Br)ccc1Cl | 5.36 | 10.5 |  |
| COc1ccc(C2/C=C\CN(C(=O)Nc3ccc(C(F)(F)F)cc3)CC(=O)N2Cc2ccc(F)cc2)cc1 (stereo not given) | 5.24 | 6.73 | 16.7 |
| O=C(/C=C/c1cccc([N+](=O)[O-])c1)NC1CC2CCC1C2 (stereo not given) | 5.22 | > 100 |  |
| O=C(CSc1nnc(NC(=O)c2ccccc2Cl)s1)Nc1ccc2c(c1)oc1ccccc12 |  |  | > 40 |
| O=C(Nc1nc2ccccc2n1CCN1CCOCC1)c1ccc(Cl)cc1 | 4.58 | > 100 | > 40 |
| COc1ccc(C2CC(=O)C3=C(C2)NC(C)=C(C#N)C3c2ccc(N(C)C)cc2)cc1 (stereo not given) | 4.90 | 21.9 |  |
| CCOC(=O)COc1ccc2ccccc2c1/C=C/[N+](=O)[O-] | 5.52 | 3.47 | 39.2 |
| O=C(c1cc2nc(-c3ccc(F)cc3)cc(C(F)(F)F)n2n1)N1CCCCC1c1cccnc1 (stereo not given) | 5.04 | 14 | > 40 |
| CCOc1ccc(N=Cc2c(O)n(-c3ccc(C)c(C)c3)c(=O)[nH]c2=O)cc1 | > 6.71 | > 100 |  |
| Cc1cc(-n2c(C)cc(C(=O)COc3ccc4ccc(=O)oc4c3)c2C)no1 | 5.09 | > 100 | > 40 |
